Laboratory results as given in patent US10702526B2, “Inhibitors of immune checkpoint modulators and related methods” (eFFECTOR Therapeutics, Inc., priority 2015, dated 2020).
“Also recorded” adds a separate entry of the source.

How the values were obtained:
PD-L1 = PD-L1 expression in tumor cell lines (Western blot); type: cell-based, human; conditions: MDA-MB-231, HBL-1, A549, MDA-MB-361, AMO-1; 0.01-10 μM, 48 hours, vs DMSO
[1] = tested on: LAG3 expression on human Pan-T cells; assay: LAG3 expression on primary T cells activated with anti-CD3/anti-CD28 beads (flow cytometry); type: cell-based
Procedure: (§1) About 3×10^5 T cells were activated using anti-CD3/anti-CD28 magnetic beads as per manufacturer's protocol (Dynabeads®, Invitrogen, Carlsbad, Calif.). Briefly, a ratio of fresh primary T cells to beads used to activate the T cells was 1:1 (for every 80,000 T cells, 2 μl of beads were added). Test cells were treated simultaneously with various concentrations of MNK-specific inhibitor Compound 107 (0.01, 0.1, 1, 3 and 10 μM). After 48 hours, culture supernatants were harvested and examined via sandwich ELISA for the presence of IL-2 using human IL-2 ELISA DuoSet® (R&D Systems, Minneapolis, Minn.). […] After fixation, cells were washed twice with flow buffer and re-suspended in flow buffer and assessed for fluorescence using BD Accuri C6 cytometer. Data were analyzed using the C6 cytometer software (BD Biosciences, San Jose, Calif.).

primary T cells = assay: Primary T cell viability (fixable dead cell stain); type: cell-based; conditions: T cells activated with anti-CD3/anti-CD28 beads
Procedure: as §1

[2] = tested on: HLA class II protein HLA-DQA1; assay: HLA-DQA1 protein level in TMD8 cells (Western blot); type: cell-based, human
Procedure: The ability of MNK-specific inhibitor compounds to regulate the level of HLA class II proteins was evaluated in a diffuse large B-cell lymphoma (DLBCL) cell line, TMD8. Briefly, human DLBCL cell line TMD8 (ATCC), was cultured in RPMI media supplemented with penicillin G (100 U/ml), streptomycin (100 μg/ml), and 10% FBS in a humidified atmosphere of 5% CO2 maintained at 37° C. About 2-4×10^6 TMD8 cells were seeded in 10 cm plates 24 hours prior to drug treatment. The following day, cells were treated with either vehicle control (DMSO) or Compound 107 at the indicated concentration (FIG. 7). Cells were harvested 48 hours post-treatment.
Treated cells were harvested, washed with PBS and lysed in 1×RIPA buffer (Thermo Fisher) for 15 minutes at 4° C. Lysates were clarified by centrifugation for 15 min at 14,000×rpm and supernatants were collected. Protein concentration in the soluble fraction was determined using the BCA protein assay (Thermo Scientific). Proteins were resolved on 4-20% Bis-Tris gradient polyacrylamide gel (Invitrogen) and transferred to nitrocellulose membrane. […] The blots were washed, scanned, and specific proteins detected using the LI-COR Odyssey infrared imager. […]

[3] = tested on: T effector (CD3+/CD8+) and T regulatory (CD4+/FOXP3+) cells; assay: TE:Treg ratio in tumor infiltrating lymphocytes of CT26 allograft tumors (flow cytometry); type: in vivo, mouse; conditions: TILs after 4 days of treatment
Procedure: Mice having established CT26 tumors (100-200 mm^3) were treated with compound 107, anti-PD1 antibody or a combination of compound 107 and anti-PD-1 antibody, as described in Example 4. After 4 days of treatment, the mice were euthanized and tumors were excised. A single cell suspension was generated by dissecting excised tumors into fine pieces with a razor blade, incubating with collagenase, hyaluronidase and DNAse I (Worthington Biochemical, Lakewood N.J.) in RPMI, incubating in 1× trypsin-EDTA, and finally passaging through a 70 micron cell strainer filter (BD Biosciences, San Jose Calif.). […] For samples assessed for CD45/CD3/CD8, cells were washed twice with flow buffer and incubated with fixation buffer for 10 minutes at 4° C. […] Samples assessed for CD45/CD4 were further processed for intracellular staining of FOXP3 using an anti-FOXP3 antibody (FOXP3-PE, BD Biosciences) and the FOXP3/Transcription Factor staining buffer set (eBiosciences, San Diego Calif.) following the manufacturer's protocol. […] Data were collected and analyzed using a BD Accuri C6 flow cytometer (BD Biosciences, San Jose Calif.). The ratio of TE to Treg cells was calculated by determining the percentage of CD3^+/CD8^+ cells present in the CD45^+ lymphocyte population and dividing by the percentage of CD4^+/FOXP3^+ present from the same population.

SMILES: Cc1cc(Nc2cc(N)ncn2)c(=O)n2c1C(=O)NC21CCCCC1.Cl [Compound 107]
- expression of PD-L1 (PD-L1): reduced in a dose dependent manner
- reduction in the expression of LAG3 ([1]; CD3/CD28 antibody bead activated T cells, 10 μM): 62%
- LAG3 expression ([1]; primary T cells, anti-CD3/anti-CD28 beads, 0.01-10 μM): reduced in a dose dependent manner
- T cell viability (percentage of dead cells) (primary T cells): no effect on T cell viability; also recorded: unaffected
- EC50 ([2]; Homo sapiens, TMD8, 48 h, read-out: EC50 of increase in HLA-DQA1 protein level): ~300 nM
- HLA-DQA1 protein level ([2]; TMD8 cells, 48 hours, 300 nM or 10 μM): dose dependent increase
- average TE:Treg ratio [3]: 9.7
